{"source": "patent US9695154B2", "about": "“Heteroaryl inhibitors of sumo activating enzyme” (MILLENNIUM PHARMACEUTICALS, INC., priority 2013, dated 2017)", "molecular_target": "T1, recombinant human SAE enzyme (Homo sapiens, UniProt Q9UBT2)", "T1 sequence (Q9UBT2 1-640)": "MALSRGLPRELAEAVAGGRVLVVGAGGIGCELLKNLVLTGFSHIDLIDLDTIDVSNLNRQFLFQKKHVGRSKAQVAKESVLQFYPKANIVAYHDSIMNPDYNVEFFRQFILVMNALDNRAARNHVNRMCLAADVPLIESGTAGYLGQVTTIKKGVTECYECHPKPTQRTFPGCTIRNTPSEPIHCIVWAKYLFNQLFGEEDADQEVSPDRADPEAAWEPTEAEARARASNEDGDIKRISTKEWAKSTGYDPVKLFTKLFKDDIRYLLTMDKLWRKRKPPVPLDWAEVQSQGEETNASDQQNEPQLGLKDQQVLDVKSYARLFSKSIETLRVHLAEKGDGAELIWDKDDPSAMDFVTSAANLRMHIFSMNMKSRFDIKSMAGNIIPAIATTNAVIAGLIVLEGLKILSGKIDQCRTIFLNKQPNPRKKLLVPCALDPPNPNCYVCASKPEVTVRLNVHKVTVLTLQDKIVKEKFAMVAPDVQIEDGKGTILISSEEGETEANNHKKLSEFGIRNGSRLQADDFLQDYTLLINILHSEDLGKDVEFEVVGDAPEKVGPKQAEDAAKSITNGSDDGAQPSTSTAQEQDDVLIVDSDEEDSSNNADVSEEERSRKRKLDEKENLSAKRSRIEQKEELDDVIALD", "T1 sequence (Q9UBE0 1-346 partner)": "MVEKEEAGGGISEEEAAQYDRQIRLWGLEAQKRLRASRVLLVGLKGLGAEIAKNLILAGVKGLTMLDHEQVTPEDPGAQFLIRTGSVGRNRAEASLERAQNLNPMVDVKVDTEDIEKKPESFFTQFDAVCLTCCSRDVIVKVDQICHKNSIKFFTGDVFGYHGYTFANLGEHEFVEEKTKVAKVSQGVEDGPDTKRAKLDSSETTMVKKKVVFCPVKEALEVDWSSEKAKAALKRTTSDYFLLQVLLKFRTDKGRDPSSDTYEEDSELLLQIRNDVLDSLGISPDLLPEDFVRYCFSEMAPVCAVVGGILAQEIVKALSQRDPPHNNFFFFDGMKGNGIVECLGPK", "assay": "SAE HTRF Enzyme Assay", "assay_type": "biochemical", "conditions": "for IC50: class symbols A-C; for inhibition at 0.111 µM: read-out: Percent Inhibition", "method_in_brief": "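Recombinant human SAE (0.11 nM) transferred Sumo-Flag (0.125 μM) to Ubc9-GST (0.01 μM) with 0.5 μM ATP in HEPES pH 7.5, MgCl2, GSH, BSA; 105 min at 24° C. EDTA stop, Eu-cryptate anti-Flag and XL-APC anti-GST added, 2 h, then HTRF read. Values given as % inhibition at one concentration or IC50.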", "key": {"[1]": {"conditions": "compound concentration 0.111 μM"}}, "note": "Structures can show the parent of a compound that is named as a salt."}
{"smiles": "NS(=O)(=O)OC[C@H]1C[C@@H](Nc2ncncc2C(=O)c2ccn(Cc3ccc(C(F)(F)F)cc3)n2)C[C@@H]1O", "note": "[Compound I-171, [(1R,2S,4R)-2-hydroxy-4-{[5-({1-[4-(trifluoromethyl)benzyl]-1H-pyrazol-3-yl}carbonyl)pyrimidin-4-yl]amino}cyclopentyl]methyl sulfamate]", "values": [{"measurement": "IC50", "value": "< 10", "unit": "nM"}, {"measurement": "inhibition at 0.111 µM", "setting": "[1]", "value": 95, "unit": "%"}]}
{"smiles": "NS(=O)(=O)OC[C@H]1C[C@@H](Nc2ncncc2C(=O)c2ccn(Cc3ccc(Cl)c(F)c3)n2)[C@H](O)[C@@H]1O", "note": "[Compound I-112, {(1R,2R,3S,4R)-4-[(5-{[1-(4-chloro-3-fluorobenzyl)-1H-pyrazol-3-yl]carbonyl}pyrimidin-4-yl)amino]-2,3-dihydroxycyclopentyl}methyl sulfamate]", "values": [{"measurement": "IC50", "value": "< 10", "unit": "nM"}, {"measurement": "inhibition at 0.111 µM", "setting": "[1]", "value": 97, "unit": "%"}]}
{"smiles": "Cc1cccc(Cn2ccc(C(=O)c3cncnc3N[C@@H]3C[C@H](COS(N)(=O)=O)[C@@H](O)C3)n2)c1F", "note": "[Compound I-22, {(1R,2S,4R)-4-[(5-{[1-(2-fluoro-3-methylbenzyl)-1H-pyrazol-3-yl]carbonyl}pyrimidin-4-yl)amino]-2-hydroxycyclopentyl}methyl sulfamate]", "values": [{"measurement": "IC50", "value": "< 10", "unit": "nM"}, {"measurement": "inhibition at 0.111 µM", "setting": "[1]", "value": 100, "unit": "%"}]}
{"smiles": "NS(=O)(=O)OC[C@H]1C[C@@H](Nc2ncncc2C(=O)c2ccn(Cc3cccc(Br)c3)n2)[C@@H](F)[C@@H]1O", "note": "[Compound I-15, {(1R,2R,3R,4R)-4-[(5-{[1-(3-bromobenzyl)-1H-pyrazol-3-yl]carbonyl}pyrimidin-4-yl)amino]-3-fluoro-2-hydroxycyclopentyl}methyl sulfamate]", "values": [{"measurement": "IC50", "value": "< 10", "unit": "nM"}, {"measurement": "inhibition at 0.111 µM", "setting": "[1]", "value": 98, "unit": "%"}]}
{"smiles": "CC(c1ccc(Cl)o1)n1ccc(C(=O)c2cncnc2N[C@@H]2C[C@H](COS(N)(=O)=O)[C@@H](O)[C@@H]2F)c1", "note": "(single isomer, unassigned) [Compound I-364, [(1R,2R,3R,4R)-4-{[5-({1-[(1S)-1-(5-chloro-2-furyl)ethyl]-1H-pyrrol-3-yl}carbonyl)pyrimidin-4-yl]amino}-3-fluoro-2-hydroxycyclopentyl]methyl sulfamate or [(1R,2R,3R,4R)-4-{[5-({1-[(1R)-1-(5-chloro-2-furyl)ethyl]-1H-pyrrol-3-yl}carbonyl)pyrimidin-4-yl]amino}-3-fluoro-2-hydroxycyclopentyl]methyl sulfamate]", "values": [{"measurement": "IC50", "value": "< 10", "unit": "nM"}, {"measurement": "Percent Inhibition", "setting": "compound concentration 0.111 μM, 0.111 µM", "value": 99, "unit": "%"}]}
{"smiles": "CC1(C)CCC(Cn2ccc(C(=O)c3cncnc3N[C@@H]3C[C@H](COS(N)(=O)=O)[C@@H](O)C3)n2)O1", "note": "(mixture of isomers) [Compound I-77, [(1R,2S,4R)-4-({5-[(1-{[(2R)-5,5-dimethyltetrahydrofuran-2-yl]methyl}-1H-pyrazol-3-yl)carbonyl]pyrimidin-4-yl}amino)-2-hydroxycyclopentyl]methyl sulfamate and [(1R,2S,4R)-4-({5-[(1-{[(2S)-5,5-dimethyltetrahydrofuran-2-yl]methyl}-1H-pyrazol-3-yl)carbonyl]pyrimidin-4-yl}amino)-2-hydroxycyclopentyl]methyl sulfamate]", "values": [{"measurement": "IC50", "value": "100 to 1000", "unit": "nM"}, {"measurement": "inhibition at 0.111 µM", "setting": "[1]", "value": 51, "unit": "%"}]}
{"smiles": "CC(C)(O)C#CCn1ccc(C(=O)c2cncnc2N[C@@H]2C[C@H](COS(N)(=O)=O)[C@@H](O)C2)n1", "note": "[Compound I-154, {(1R,2S,4R)-2-hydroxy-4-[(5-{[1-(4-hydroxy-4-methylpent-2-yn-1-yl)-1H-pyrazol-3-yl]carbonyl}pyrimidin-4-yl)amino]cyclopentyl}methyl sulfamate]", "values": [{"measurement": "IC50", "value": "100 to 1000", "unit": "nM"}, {"measurement": "inhibition at 0.111 µM", "setting": "[1]", "value": 39, "unit": "%"}]}
{"smiles": "NS(=O)(=O)OC[C@H]1C[C@@H](Nc2ncncc2C(=O)c2ccn(Cc3ccc(C(F)(F)F)cc3C(F)(F)F)n2)[C@H](O)[C@@H]1O", "note": "[Compound I-266, [(1R,2R,3S,4R)-4-{[5-({1-[2,4-bis(trifluoromethyl)benzyl]-1H-pyrazol-3-yl}carbonyl)pyrimidin-4-yl]amino}-2,3-dihydroxycyclopentyl]methyl sulfamate]", "values": [{"measurement": "IC50", "value": "10 to 100", "unit": "nM"}, {"measurement": "inhibition at 0.111 µM", "setting": "[1]", "value": 87, "unit": "%"}]}
{"smiles": "C[Si](C)(C)c1cccc(Cn2ccc(C(=O)c3cncnc3N[C@@H]3C[C@H](COS(N)(=O)=O)[C@@H](O)C3)n2)c1", "note": "[Compound I-137, [(1R,2S,4R)-2-hydroxy-4-{[5-({1-[3-(trimethylsilyl)benzyl]-1H-pyrazol-3-yl}carbonyl)pyrimidin-4-yl]amino}cyclopentyl]methyl sulfamate]", "values": [{"measurement": "IC50", "value": "10 to 100", "unit": "nM"}, {"measurement": "inhibition at 0.111 µM", "setting": "[1]", "value": 78, "unit": "%"}]}
{"smiles": "COCCn1ccc(C(=O)c2cncnc2N[C@@H]2C[C@H](COS(N)(=O)=O)[C@@H](O)C2)n1", "note": "[Compound I-305, {(1R,2S,4R)-2-hydroxy-4-[(5-{[1-(2-methoxyethyl)-1H-pyrazol-3-yl]carbonyl}pyrimidin-4-yl)amino]cyclopentyl}methyl sulfamate]", "values": [{"measurement": "IC50", "value": "100 to 1000", "unit": "nM"}, {"measurement": "inhibition at 0.111 µM", "setting": "[1]", "value": 32, "unit": "%"}]}
{"smiles": "NS(=O)(=O)CC[C@H]1C[C@@H](Nc2ncncc2C(=O)c2ccn(Cc3cccc(Br)c3)n2)C[C@@H]1O", "note": "[Compound I-38, 2-{(1R,2S,4R)-4-[(5-{[1-(3-bromobenzyl)-1H-pyrazol-3-yl]carbonyl}pyrimidin-4-yl)amino]-2-hydroxycyclopentyl}ethanesulfonamide]", "values": [{"measurement": "IC50", "value": "100 to 1000", "unit": "nM"}, {"measurement": "inhibition at 0.111 µM", "setting": "[1]", "value": 51, "unit": "%"}]}
{"smiles": "CC(C)n1ccc(C(=O)c2cncnc2N[C@@H]2C[C@H](COS(N)(=O)=O)[C@@H](O)[C@H]2O)n1", "note": "[Compound I-220, [(1R,2R,3S,4R)-2,3-dihydroxy-4-({5-[(1-isopropyl-1H-pyrazol-3-yl)carbonyl]pyrimidin-4-yl}amino)cyclopentyl]methyl sulfamate]", "values": [{"measurement": "IC50", "value": "10 to 100", "unit": "nM"}, {"measurement": "inhibition at 0.111 µM", "setting": "[1]", "value": 57, "unit": "%"}]}
{"smiles": "COC(C)(C)C#CCn1ccc(C(=O)c2cncnc2N[C@@H]2C[C@H](COS(N)(=O)=O)[C@@H](O)C2)n1", "note": "[Compound I-151, {(1R,2S,4R)-2-hydroxy-4-[(5-{[1-(4-methoxy-4-methylpent-2-yn-1-yl)-1H-pyrazol-3-yl]carbonyl}pyrimidin-4-yl)amino]cyclopentyl}methyl sulfamate]", "values": [{"measurement": "IC50", "value": "10 to 100", "unit": "nM"}, {"measurement": "inhibition at 0.111 µM", "setting": "[1]", "value": 54, "unit": "%"}]}
{"smiles": "N[C@@H]1[C@H](O)[C@@H](COS(N)(=O)=O)C[C@H]1Nc1ncncc1C(=O)c1ccn(Cc2cccc(Br)c2)n1", "note": "[Compound I-370, {(1R,2R,3S,4R)-3-amino-4-[(5-{[1-(3-bromobenzyl)-1H-pyrazol-3-yl]carbonyl}pyrimidin-4-yl)amino]-2-hydroxycyclopentyl}methyl sulfamate.2[HCl]]", "values": [{"measurement": "IC50", "value": "10 to 100", "unit": "nM"}, {"measurement": "inhibition at 0.111 µM", "setting": "[1]", "value": 78, "unit": "%"}]}
{"smiles": "NS(=O)(=O)OC[C@H]1C[C@@H](Nc2ncncc2C(=O)c2ccn(Cc3c(F)ccc(F)c3F)n2)C[C@@H]1O", "note": "[Compound I-16, {(1R,2S,4R)-2-hydroxy-4-[(5-{[1-(2,3,6-trifluorobenzyl)-1H-pyrazol-3-yl]carbonyl}pyrimidin-4-yl)amino]cyclopentyl}methyl sulfamate]", "values": [{"measurement": "IC50", "value": "< 10", "unit": "nM"}, {"measurement": "inhibition at 0.111 µM", "setting": "[1]", "value": 98, "unit": "%"}]}
{"smiles": "CCc1cc(C(=O)c2cncnc2N[C@@H]2C[C@H](COS(N)(=O)=O)[C@@H](O)[C@@H]2F)cn1Cc1cccc(Br)c1", "note": "[Compound I-187, {(1R,2R,3R,4R)-4-[(5-{[1-(3-Bromobenzyl)-5-ethyl-1H-pyrrol-3-yl]carbonyl}pyrimidin-4-yl)amino]-3-fluoro-2-hydroxycyclopentyl}methyl sulfamate]", "values": [{"measurement": "IC50", "value": "< 10", "unit": "nM"}, {"measurement": "inhibition at 0.111 µM", "setting": "[1]", "value": 99, "unit": "%"}]}
